Series [1] deals with C6. As to the kind of experiment: Cytotoxicity against rat C6 cells incubated for 48 hrs by MTT assay. The series is classed as functional, cell-based.
The nature of series [2]: Cytotoxicity against human U138MG cells incubated for 48 hrs by MTT assay. The series is classed as functional, cell-based, U138-MG.
Series [3] concerns C6. In words: Induction of apoptotic cell death in rat C6 cells at 50 uM incubated for 24 hrs by Annexin V/PI staining based flow cytometry. The series is classed as functional.
Series [4] deals with C6. As to the kind of experiment: Induction of apoptotic cell death in rat C6 cells at 25 uM incubated for 24 hrs by Annexin V/PI staining based flow cytometry. In kind it is functional.
In series [5] the test system is C6. As to the kind of experiment: Induction of early apoptotic cell death in rat C6 cells at 100 uM incubated for 24 hrs by Annexin V/PI staining based flow cytometry. In kind it is functional.
The subject of the next series is Hippocampus. In words: Toxicity in Wistar rat organotypic hippocampal cultures at 100 uM incubated for 48 hrs by propidium iodide incorporation assay. The series is classed as tissue-based.
Setting [6] is: Rattus norvegicus, C6, 48 h, read-out: IC50.
Where [7] appears, read: Homo sapiens, U138-MG, 48 h, read-out: IC50.

Activity calls are given as the source filed them. No cut-off for these calls is given here.

As to `O=c1ccc2ccccc2o1` [COUMARIN], the IC50 result (with C6 [1] (c6); in series [2] (u138-mg)) was “Not Active” throughout.

On to `CC(C)=CCOc1c2c(cc3oc(=O)ccc13)OCO2`, for which the results for the IC50 (with C6 [1] (setting [6]); in series [2] (setting [7])) were 77.5 µM and 65.4 µM, respectively.

Consider `O=c1ccc2ccc(O)cc2o1` [UMBELLIFERONE], for which the IC50 entry (in the series with C6 [1] (c6); in series [2] (u138-mg)) was “Not Active” throughout.

Consider `Cn1nnc2c(C(N)=O)ncn2c1=O` [TEMOZOLOMIDE], for which the IC50 stood at 34 µM with C6 [1] (setting [6]) and 26 µM in series [2] (setting [7]).

As to `CC(C)(O)C(O)COc1c2c(cc3oc(=O)ccc13)OCO2` (stereo not given), the IC50 in the series on C6 [1] (setting [6]) was 76.4 µM; in series [2] (setting [7]), 75.6 µM.

For the compound `O=c1ccc2cc(O)c(O)cc2o1` [ESCULETIN], the IC50 entry (with C6 [1] (c6); in series [2] (u138-mg)) was “Not Active” in each case.

Take `COc1c2c(cc3oc(=O)ccc13)OCO2`: the outcome in the series on C6 [3] and in the series with C6 [4] was inactive. The IC50 in the series on C6 [1] (setting [6]) worked out at 34.6 µM; in series [2] (setting [7]), 31.6 µM. Further, the result with C6 [5] was Active. Besides, in the series with Hippocampus, the Activity entry is on record as “Non-toxic”.

For `O=c1ccc2cc(O[C@@H]3O[C@H](CO)[C@@H](O)[C@H](O)[C@H]3O)c(O)cc2o1` [ESCULIN], the IC50 entry (with C6 [1] (c6); in series [2] (u138-mg)) was “Not Active” each time.
